In US11185516B2 (Laboratorios Silanes S.A. DE C.V., priority 2016, dated 2021):
Structures can show the parent of a compound that is named as a salt.

Tests used:
[1] = tested on: IRS2−/− (KO) mice; experiment: Fasting glycemia and insulinemia in female IRS2−/− mice; assay type: in vivo, mouse; details: 4 weeks
From the text: Insulin resistance characterizes type 2 diabetes, obesity, and the metabolic syndrome. Thus, insulin sensitivity is a major therapeutic objective for these metabolic diseases. Insulin receptor substrate (IRS) proteins regulate the physiological actions of insulin upon binding to the receptor. Specific deletion of IRS2 in mice produces diabetes due to a developmental reduction of the pancreatic β-cell mass and the inability of existing β-cells to expand in response to peripheral insulin resistance. Additionally, IRS2-deficiency in mice causes hepatic insulin resistance concurrent with failed suppression of hepatic glucose production. While male IRS2−/− mice often die of diabetic complications by 12 weeks of age, females IRS2−/− mice develop a milder form of diabetes and many live up to 6 months. The observation that female IRS2−/− mice eat more than controls led to the discovery that this molecule is critical for hypothalamic regulation of food intake.
The mean glycemic values are represented per group (n=3) pre-treatment (black bars) and post-treatment (gray bars) along with their standard deviations. […] The fasting serum insulin levels taken pre-treatment (black bars) and post-treatment (gray bars) were determined using a kit (Millipore), following the manufacturer's instructions. Mean values and standard deviations are presented for each group (n=3) (FIG. 12D).
Due to peripheral resistance to insulin, the IRS2−/− mice also develop hyperinsulinemia.

[2] = target: T1, GPBP (Homo sapiens, UniProt Q9Y5P4); details: 1 mM, 24 h
T1 sequence (Q9Y5P4 1-624): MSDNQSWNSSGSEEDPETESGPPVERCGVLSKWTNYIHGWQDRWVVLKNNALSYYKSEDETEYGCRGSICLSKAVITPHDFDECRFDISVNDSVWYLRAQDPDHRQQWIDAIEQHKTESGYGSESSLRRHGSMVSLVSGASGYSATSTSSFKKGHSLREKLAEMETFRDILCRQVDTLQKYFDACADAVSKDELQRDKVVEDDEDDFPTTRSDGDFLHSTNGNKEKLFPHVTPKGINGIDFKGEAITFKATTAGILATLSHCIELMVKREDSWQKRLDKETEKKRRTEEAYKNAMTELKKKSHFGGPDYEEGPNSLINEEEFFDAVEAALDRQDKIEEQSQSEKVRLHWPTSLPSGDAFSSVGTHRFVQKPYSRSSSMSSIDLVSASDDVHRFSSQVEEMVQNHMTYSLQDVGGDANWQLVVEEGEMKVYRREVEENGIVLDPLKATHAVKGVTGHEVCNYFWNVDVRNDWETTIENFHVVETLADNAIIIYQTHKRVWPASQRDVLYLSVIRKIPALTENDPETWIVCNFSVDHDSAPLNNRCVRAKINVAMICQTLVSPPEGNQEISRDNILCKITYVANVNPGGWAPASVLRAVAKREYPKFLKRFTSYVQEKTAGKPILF

[3] = tested on: C2C12 myotubes; experiment: Glucose concentration of C2C12 myotube cultures in M1 macrophage conditioned media; assay type: cell-based, mouse; details: macrophages treated with 10 mM for 2 h, then LPS/IFNγ 16 h
Protocol: There is considerable evidence showing that inflammation and hyperglycemia are interconnected: inflammation induces hyperglycemia and reciprocally hyperglycemia induces inflammation with the molecular bases not elucidated yet. To explore the participation of GPBP, glucose intake under normoglycemic conditions with conditioned media generated by macrophages differentiated to a proinflammatory M1 phenotype was monitored.
[…]. The glucose concentration of the myotube cultures was determined at different times with Glucocard (Arkray). The controls used were the C2C12 cultured with media conditioned with no stimulated macrophages (Cells) or with M1 conditioned media (M1). The initial glucose levels (time 0) were used as a reference (100%) in each series.

[4] = tested on: VAPA and VAMPs; experiment: Colocalization of VAPA and VAMPs (FIG. 18)
[5] = tested on: IRS2 knockout mice (KO IRS2); experiment: Body weight in IRS2 knockout mice; assay type: in vivo, mouse; details: 100 mg/kg/day, 8 weeks
Protocol: Body weight of the mice was measured prior to the onset of treatment, at 4 weeks after treatment, and at 8 weeks after treatment. There were 8 mice in each group at the pre-treatment and 4-week treatment time points. […] Statistical differences between the experimental groups shown in FIG. 20 were assessed by Student's T test. P value of <0.05 is indicated by *.

[6] = tested on: proIL-1β, TNFα, iNOS, IL-6, MCP-1 and IL-12; experiment: Inflammation marker expression in palmitate-stimulated L1 adipocytes (RT-qPCR); assay type: cell-based; details: 10 mM, palmitate 500 μM, 24 h
Protocol: Palmitate is a saturated fatty acid that simulates an experimental obese state. It can be used as a pro-inflammatory stimulant for cytokines such as proIL-1β, TNFα, iNOS, IL-6, MCP-1 and IL-12.
Next, the relative expression of inflammation markers was analyzed by RT and qPCR using HPRT-1 as a normalizer and the untreated cell expression levels as a reference (for MCP-1 and IL-12) or those treated palmitate. After the treatments, culture media were collected and subsequently analyzed, cells were washed with PBS, and RNA was extracted (illustra RNAspin Mini, GE Healthcare) and reverse transcribed (High Capacity cDNA Reverse Transcription Kit, Life Technologies). The expression of the genes that were the object of the study was analyzed by qPCR using specific probes (TaqMan® Gene Expression Assays, Life Technologies). The relative expression (RQ), represented in the figure, was calculated by the ΔΔCt method.

[7] = tested on: AS160; experiment: In vitro AS160 phosphorylation in the presence of GPBP, AMPK and AKT; assay type: biochemical; details: 5 mM, with FLAG-GPBP, AKT, AMPK
Protocol: The reactions (25 μL) were carried out at 30° C., and stirred (350 rpm) for 15 min. Then, they were stopped with a reducing loading buffer, heated (95° C., 2 min), and analyzed using electrophoresis, electrotransfer, and autoradiography.

[8] = tested on: GLUT4; experiment: GLUT4 translocation (FIG. 19A)
[9] = tested on: IRS2 knockout mice (KO IRS2); experiment: Serum triglycerides in IRS2 knockout mice; assay type: in vivo, mouse; details: 100 mg/kg/day, 8 weeks, fasting
Protocol: At the 8-week treatment time point, there were 8 mice in each of the WT groups, 6 mice in the KO IRS2 untreated control group, 7 mice in the KO IRS2 SLN1 treated group, and 8 mice in the KO SLN2 treated group. Blood was collected at the time of sacrifice and used to measure TG under fasting conditions. […] Statistical differences between the experimental groups shown in FIG. 21 were assessed by Student's T test. P value of <0.05 is indicated by *.

[10] = tested on: C57BL/6 mice; experiment: Glycemia and dietary intake in C57BL/6 mice; assay type: in vivo, mouse; details: 1 week
From the text: The mean glycemic values at the beginning and end of the experiment are represented for each group (n=3) with their standard deviations.

[11] = clinical; details: both, human, in vivo
[12] = clinical; details: both, human, in vivo, oral
[13] = Stage B, ANOVA of repeated measures

| SMILES | fasting glycemia post-treatment ([1]; 100 mg/kg/day with food, 10-12 weeks old) | fasting insulin levels ([1]; 100 mg/kg/day) | high molecular weight GPBP aggregates [2] | glucose levels of myotube cultures (hyperglycemic levels) [3] | colocalization of VAPA and VAMPS [4] | colocalization of VAPA and VAMPS, comparison SLN1 vs SLN2 [4] | average body weight, post- vs pre-treatment [5] | inflammatory response of palmitate-stimulated adipocytes [6] | phosphorylation of AS160 [7] | GLUT4 translocation [8] | serum triglycerides compared to untreated KO IRS2 [9] | glycemia, end vs beginning ([10]; 100 mg/kg/day mixed with solid food, n=3) | food intake compared to untreated mice ([10]; 100 mg/kg/day) | AUC [11] [µg·h/mL] | AUC [12] [µg·h/mL] | AUC ([12]; 1240 mg) [µg·h/mL] | Ln AUCt, Ln AUC12 and Ln AUC0, differences attributed to formula, period and sequence factors [13] | Ln Cmax, differences attributed to formula, period and sequence factors [13] | Ln Cmin, differences attributed to formula, period and sequence factors [13] |
| --- | --- | --- | --- | --- | --- | --- | --- | --- | --- | --- | --- | --- | --- | --- | --- | --- | --- | --- | --- |
| CN(C)C(=N)N=C(N)N [Metformin hydrochloride, metformin hydrochloride, reference compound] | slightly lower, though not statistically significant | higher than at the initiation of the experiment | not present | slowed down the progression towards hyperglycemia | reduced colocalization | greater reduction effect | not significantly different | attenuated the inflammatory response | inhibited AS160 phosphorylation | failed to do so | lower | significantly reduced glycemia | food intake was greater | – | – | – | – | – | – |
| CN(C)C(=N)N=C(N)N [Metformin, metformin] | – | – | – | – | – | – | – | – | – | – | – | – | – | 92.4 to 109 | 119 to 134 | 76.1 to 92.5 | did not show statistically significant differences | did not show statistically significant differences | did not show statistically significant differences |
